In BindingDB's records for doi:10.1016/j.bmc.2016.01.042 (University of California, 2016):

Molecular target: T1, Polyunsaturated fatty acid lipoxygenase ALOX15 (Homo sapiens, UniProt P16050)
T1 sequence (P16050 whole entry): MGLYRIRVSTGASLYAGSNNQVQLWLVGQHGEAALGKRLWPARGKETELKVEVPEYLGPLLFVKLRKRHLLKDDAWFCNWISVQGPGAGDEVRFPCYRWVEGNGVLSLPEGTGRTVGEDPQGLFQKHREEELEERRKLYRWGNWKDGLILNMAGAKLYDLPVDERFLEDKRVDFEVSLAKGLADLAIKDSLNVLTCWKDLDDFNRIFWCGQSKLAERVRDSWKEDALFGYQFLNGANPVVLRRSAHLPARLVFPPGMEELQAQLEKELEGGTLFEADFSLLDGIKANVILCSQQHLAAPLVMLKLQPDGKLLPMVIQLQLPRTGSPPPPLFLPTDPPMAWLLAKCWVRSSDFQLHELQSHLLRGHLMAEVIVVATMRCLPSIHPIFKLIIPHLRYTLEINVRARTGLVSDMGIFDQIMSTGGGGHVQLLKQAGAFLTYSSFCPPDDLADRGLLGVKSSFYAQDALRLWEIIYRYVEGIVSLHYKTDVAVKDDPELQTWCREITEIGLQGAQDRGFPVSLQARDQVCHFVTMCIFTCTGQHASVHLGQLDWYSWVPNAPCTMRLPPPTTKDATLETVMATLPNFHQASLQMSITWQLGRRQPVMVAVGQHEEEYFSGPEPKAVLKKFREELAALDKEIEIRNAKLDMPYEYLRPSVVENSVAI
Assay: Competitive inhibition of N-terminal His6-tagged human 12/15-LOX using arachidonic acid as substrate by Dixon plot analysis

`Cc1ccc(O)c(-c2cc(-c3ccccc3C)[nH]n2)c1` [4-methyl-2-[5-(2-methylphenyl)-1H-pyrazol-3-yl]phenol] showed a Ki of 1 µM.
